Measured values published in ChEMBL document CHEMBL1255316, “A peptide with a ProGln C terminus in the human saliva peptidome exerts bactericidal activity against Propionibacterium acnes” (Antimicrob Agents Chemother, 2008).
The source made the active and inactive calls. The calls are words filed in the database; no cut-off is given here. Residues, ends and D or L forms follow the SMILES beside them.

Columns and labels:
Cell membrane [1] = assay: Binding affinity to membrane of Propionibacterium acnes ATCC 6919 at 10 uM after 1 hr by fluorescence microscopy under anaerobic condition; format: functional; conditions: Cutibacterium acnes, Plasma membrane
Porphyromonas gingivalis = assay: Binding affinity to membrane of Porphyromonas gingivalis ATCC 33277 at 10 uM after 1 hr by fluorescence microscopy under anaerobic condition; format: functional
Cutibacterium acnes [2] = assay: Antibacterial activity against Propionibacterium acnes assessed as attenuation of colonization at 10 uM incubated with compound for 3 hrs measured after 2 days; format: functional, organism-based
Cutibacterium acnes [3] = assay: Antibacterial activity against Propionibacterium acnes assessed as attenuation of colonization at 1 uM incubated with compound for 3 hrs measured after 2 days; format: functional, organism-based
Cell membrane [4] = assay: Binding affinity to membrane of Propionibacterium acnes ATCC 6919 at 1 uM after 1 hr by fluorescence microscopy under anaerobic condition; format: functional; conditions: Cutibacterium acnes, Plasma membrane
Cutibacterium acnes [5] = assay: Antibacterial activity against Propionibacterium acnes assessed as attenuation of colonization at 100 uM incubated with compound for 3 hrs measured after 2 days; format: functional, organism-based

Row | Activity (Porphyromonas gingivalis) | Structure (SMILES) | Activity (Cell membrane [1]) | Activity (Cutibacterium acnes [2]) | Activity (Cutibacterium acnes [3]) | Activity (Cell membrane [4]) | Activity (Cutibacterium acnes [5])
1 | – | N=C(N)NCCC[C@H](NC(=O)[C@H](CCCCN)NC(=O)CNC(=O)[C@@H](N)CS)C(=O)N[C@@H](CCCCN)C(=O)O (H-CGKRK-OH) | inactive | – | – | – | –
2 | inactive | N=C(N)NCCC[C@H](NC(=O)CNC(=O)CNC(=O)[C@H](CCC(N)=O)NC(=O)[C@@H]1CCCN1C(=O)[C@@H]1CCCN1C(=O)[C@@H]1CCCN1C(=O)CN)C(=O)N1CCC[C@H]1C(=O)N[C@@H](CCC(N)=O)C(=O)O (H-GPPPQGGRPQ-OH) | Active | Active | Active | Active | Active
